The assay concerns the target T1, Prostaglandin E synthase (Homo sapiens, UniProt O14684).
T1 sequence (O14684 whole entry): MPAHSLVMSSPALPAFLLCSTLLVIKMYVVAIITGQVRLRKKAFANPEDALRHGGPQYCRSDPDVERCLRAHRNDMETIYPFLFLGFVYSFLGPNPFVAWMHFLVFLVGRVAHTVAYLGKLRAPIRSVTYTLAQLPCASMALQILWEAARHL
Briefly: Biochemical Assay. The note with it: pH 6.8. The method, then:
A solution of test compound was added to a diluted microsome preparation containing human mPGES-1 and pre-incubated for 15 minutes in potassium phosphate buffer pH 6.8 with cofactor glutathione (GSH). Corresponding solutions without test compound were used as positive controls, and corresponding solutions without test compound and without microsomes were used as negative controls. The enzymatic reaction was then started by addition of the substrate PGH2 in an organic solution (dry acetonitrile).The typical reaction conditions of the enzymatic reaction were thus: Test compound: ranging from 60 uM to 0.002 uM, or zero in positive and negative controls; potassium phosphate buffer pH 6.8: 50 mM; GSH: 2.5 mM; mPGES-1-containing microsomes: 2 ug/mL (sample and positive controls) or 0 ug/mL (negative control); PGH2: 10.8 uM; Acetonitrile: 7.7% (v/v); DMSO: 0.6% (v/v). The reaction was stopped after one minute by adding an acidic solution (pH 1.9) of ferric chloride.

From BindingDB's records for patent US9145380 (Astrazeneca, 2015) come the findings set out here.

In the case of `COc1ccc(Br)cc1/C=C/S(=O)(=O)Nc1ccc(C#CC(C)(C)O)cc1S(N)(=O)=O` [US9145380, 179], the IC50 (usually the midpoint of a concentration-inhibition curve) is 6.2 µM.
